pIC50: −log10 of the molar value. Several values for one entry are separate records, joined by “and”; a condition that tells them apart may be missing. Identical values can stand only once. Blank lines part the entries; values can stand above or below the molecule they belong to.
Tested on: 772245-204-R-J1-PDC complex spheroid growth
Experiment: Anticancer human tumor 772245-204-R-J1-PDC patient-derived rhabdomyosarcoma cell line growth inhibition [Asc]
Conditions: for viability, T/C: stronger effect = lower value
Outline: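 Tumor cells were grown as multicellular spheroids with stromal HUVEC and mesenchymal stem cells and treated singly or in combination. Concentrations fell in half-log steps from the clinical Cmax, or from 10 microM where none was known.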
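Also: compound exposure lasted seven days.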
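For viability, T/C in this document: 100% = DMSO vehicle control viability.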

pIC50 (curve of first compound, second compound 0.01 µM): < 7.00
pIC50 (curve of first compound, second compound 0.0316 µM): < 7.00
pIC50 (curve of first compound, second compound 0.1 µM): < 7.00
pIC50 (curve of first compound, second compound 0.316 µM): < 7.00
pIC50 (curve of first compound, second compound 1 µM): < 7.00
SMILES: Cn1ncnc1[C@H]1c2n[nH]c(=O)c3cc(F)cc(c23)N[C@@H]1c1ccc(F)cc1 + CNC(C)C(=O)NC1CN(S(=O)(=O)c2cccc(S(=O)(=O)N3CCC4CCC(C(=O)NC(c5ccccc5)c5ccccc5)N4C(=O)C(NC(=O)C(C)NC)C3)c2)CCC2CCC(C(=O)NC(c3ccccc3)c3ccccc3)N2C1=O
viability, T/C (second compound 0.01 µM, first compound 0.000316 µM): 85.5%
viability, T/C (second compound 0.01 µM, first compound 0.001 µM): 83.7%
viability, T/C (second compound 0.01 µM, first compound 0.00316 µM): 91.7%
viability, T/C (second compound 0.01 µM, first compound 0.01 µM): 90%
viability, T/C (second compound 0.01 µM, first compound 0.0316 µM): 91%
viability, T/C (second compound 0.01 µM, first compound 0.1 µM): 76.1%
viability, T/C (second compound 0.0316 µM, first compound 0.000316 µM): 98.9%
viability, T/C (second compound 0.0316 µM, first compound 0.001 µM): 94.9%
viability, T/C (second compound 0.0316 µM, first compound 0.00316 µM): 99.7%
viability, T/C (second compound 0.0316 µM, first compound 0.01 µM): 97.1%
viability, T/C (second compound 0.0316 µM, first compound 0.0316 µM): 85%
viability, T/C (second compound 0.0316 µM, first compound 0.1 µM): 94.2%
viability, T/C (second compound 0.1 µM, first compound 0.000316 µM): 97%
viability, T/C (second compound 0.1 µM, first compound 0.001 µM): 96.6%
viability, T/C (second compound 0.1 µM, first compound 0.00316 µM): 85.7%
viability, T/C (second compound 0.1 µM, first compound 0.01 µM): 102%
viability, T/C (second compound 0.1 µM, first compound 0.0316 µM): 81.7%
viability, T/C (second compound 0.1 µM, first compound 0.1 µM): 79.4%
viability, T/C (second compound 0.316 µM, first compound 0.000316 µM): 97.3%
viability, T/C (second compound 0.316 µM, first compound 0.001 µM): 96.2%
viability, T/C (second compound 0.316 µM, first compound 0.00316 µM): 96.1%
viability, T/C (second compound 0.316 µM, first compound 0.01 µM): 82.2%
viability, T/C (second compound 0.316 µM, first compound 0.0316 µM): 89.2%
viability, T/C (second compound 0.316 µM, first compound 0.1 µM): 94.4%
viability, T/C (second compound 1 µM, first compound 0.000316 µM): 112%
viability, T/C (second compound 1 µM, first compound 0.001 µM): 88.4%
viability, T/C (second compound 1 µM, first compound 0.00316 µM): 97.8%
viability, T/C (second compound 1 µM, first compound 0.01 µM): 85.3%
viability, T/C (second compound 1 µM, first compound 0.0316 µM): 84.2%
viability, T/C (second compound 1 µM, first compound 0.1 µM): 85.6%

pIC50 (curve of compound): 6.87 and 7.38 and < 6.52
SMILES: NC(=O)C(=Cn1cnc(-c2cc(C(F)(F)F)cc(C(F)(F)F)c2)n1)c1cncnc1
viability, T/C (compound 0.000949 µM): 92.1% and 79.1% and 89.4%
viability, T/C (compound 0.003 µM): 94.4% and 79.8% and 83.2%
viability, T/C (compound 0.00949 µM): 89.3% and 86.5% and 108%
viability, T/C (compound 0.03 µM): 69.9% and 55.1% and 101%
viability, T/C (compound 0.0949 µM): 49.8% and 38% and 82.4%
viability, T/C (compound 0.3 µM): 49.2% and 25.1% and 59.7%
